Test results reported in patent US5491072A, “N-alkylacridan carboxyl derivatives useful for chemiluminescent detection” (Lumigen, Inc., priority 1993, dated 1996).

Key:
[1] = biological target: T1, horseradish peroxidase (Armoracia rusticana, UniProt P00433); assay: Effect of pH and buffer salt on chemiluminescence of 1b; type: biochemical; settings: 0.1 mM 1b, 0.8 mM H2O2, 2.25 mM p-iodophenol, 1.4×10^-15 mol HRP, 30 min, room temperature
T1 sequence (P00433 31-338 limits assumed): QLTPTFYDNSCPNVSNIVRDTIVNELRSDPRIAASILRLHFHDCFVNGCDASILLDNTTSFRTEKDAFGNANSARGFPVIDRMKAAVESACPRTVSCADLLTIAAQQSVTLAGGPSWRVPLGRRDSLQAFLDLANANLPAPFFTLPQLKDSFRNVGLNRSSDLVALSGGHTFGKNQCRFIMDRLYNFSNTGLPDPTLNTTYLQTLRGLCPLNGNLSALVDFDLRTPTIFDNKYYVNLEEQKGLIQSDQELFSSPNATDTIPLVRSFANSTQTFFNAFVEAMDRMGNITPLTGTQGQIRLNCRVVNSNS
Method: (§1) The experiments in the following examples were performed using a Turner Designs TD-20e luminometer fitted with neutral density filter for light attenuation. Data collection, analysis and display were software controlled. Constant temperature was maintained by means of an external circulating water bath connected to the luminometer.
The present invention may be practiced over the pH range of at least 7-9 and functions with different buffering salts. Tubes containing 200 μL of a formulation containing 0.1 mM 1b in the specified buffer, 0.8 mM H2 O2, 2.25 mM p-iodophenol, 0.5% (w/w) Tween 20 and 1 mM EDTA were placed in the luminometer at room temperature. Horseradish peroxidase (1.4×10^-15 mol) was injected and the chemiluminescence intensity determined at 30 min. The time course of the light emission was similar in all four solutions. The optimum pH can vary with changes in the concentrations of the reactants.

[2] = biological target: T1, horseradish peroxidase; assay: Sensitivity of detection of horseradish peroxidase using 1b and sodium perborate; type: biochemical; settings: 1b 46 μmol/L, 0.2 mmol/L perborate, 37° C.; for linear assay range for HRP: pH 8.0 tris
Method: as §1
A matrix optimization experiment was done using 1b (0.1 mM-0.05 mM), sodium perborate (3 mM-0.2 mM) and HRP (1.4×10^-18 mol-1.4×10^-14 mol) at 37° C. The final assay reagent consists of 2.25×10^-3 M p-iodophenol, 0.5% Tween 20 and 1×10^-3 M EDTA in pH 8.0, 0.1M tris buffer. The best compromise between sensitivity and dynamic range was obtained using 1b (46 μmol/L) and 0.2 mmol/L perborate. These conditions gave a linear assay for HRP in the range of […] to 1.4×10^-14 mol (detection limit S/B=1.4 after 5 min with 1.4×10^-18 mol) or in the range of 1.4×10^-18 to 1.4×10^-15 mol (detection limit S/B-1.5 after 15 min with 1.4×10^-18 mol).
FIGS. 3A to 3C show the correlation of corrected signal to background vs. amount of HRP using solutions containing 0.05 mM 1b, 0.5% Tween 20, 1×10^-3 M EDTA in pH 8.0, 0.1M tris buffer.

- S/B ([1]; 0.1 M phosphate buffer, pH 8.9): 306
- S/B ([1]; 0.1 M tris buffer, pH 8.0): 1400
- S/B ([1]; 0.1 M tris buffer, pH 8.5): 600
- S/B ([1]; 0.1 M tris buffer, pH 8.9): 160
- linear assay range for HRP ([2]; after 5 min): 4e-19 to 1.4e-14 mol
- linear assay range for HRP ([2]; after 15 min): 1.4e-18 to 1.4e-15 mol
- detection limit S/B ([2]; after 5 min with 1.4×10^-18 mol HRP): 1.4
SMILES: CN1c2ccccc2C(C(=O)Oc2ccc(O)cc2)c2ccccc21 [Compound 1b, 4'-Hydroxyphenyl 10-methylacridan-9-carboxylate]
